{
  "source": "patent EP4729530A1",
  "about": "“NOVEL PEPTIDE AND USE THEREOF” (Gemvax & Kael Co., Ltd., priority 2023, dated 2024)",
  "key": {"tau oligomer formation": {"tested_on": "tau oligomer formation", "experiment": "Brain Tau-BiFC imaging for tau oligomer formation", "assay_type": "in vivo, mouse", "settings": "GV2002 2 mg/kg subcutaneous, 3 times/week, 21 weeks", "method": "(§1) In vivo experiments were performed on the 4R tauopathy mouse groups shown in FIG. 4 according to the schedule shown in FIG. 5 and the outline in Table 3 below.\nBrains from a 4R tauopathy mouse model administered GV2002 for five months, from 7.5 to 12.5 months of age, were removed and analyzed using lipid staining.\nBrain tissue sampling was performed in the same manner as in Example 4-5.\nTo remove autofluorescence from brain tissues through lipid staining, a 0.05% Sudan Black B solution in 70% ethanol was stirred overnight and then filtered through a 0.22-µm filter. 30-µm-thick frozen brain sections from each region were immersed in deionized water and washed three times for 5 minutes each. The brain tissue was then immersed in the prepared 0.05% Sudan Black B solution for 10 minutes to perform staining. The brain tissue stained with Sudan Black B was immersed in 0.1% PBS-T solution and washed at 30-second intervals to adjust the staining intensity and then washed three times with deionized water for 5 minutes each. Nuclear staining was performed by immersing the brain tissue in a 0.2-µg/mL Hoechst solution in deionized water for 20 minutes. The tissue was then washed three times with deionized water for 5 minutes each. Tau-BiFC imaging was performed using a slide scanner.\nTo obtain fluorescence images of the stained brain tissue, brain tissue slides were scanned using a Zeiss Axio Scan. Tau-BiFC fluorescence levels in each brain region obtained through fluorescence imaging, i.e., the somatosensory cortex, hippocampus (CA1), motor cortex, and substantia nigra, were calculated using ImageJ software. The calculated values were analyzed using one-way ANOVA with Dunnett's multiple comparisons test."}, "[1]": {"tested_on": "total tau (Tau5) and phosphorylated tau (pS199, pS396)", "experiment": "Brain lysate analysis by tau immunoblot (soluble and insoluble fractions)", "assay_type": "in vivo, mouse", "settings": "GV2002 2 mg/kg subcutaneous, 3 times/week, 21 weeks", "method": "as §1\nBrain lysates from a 4R tauopathy mouse model administered GV2002 for five months, from 7.5 to 12.5 months of age, were obtained. Soluble and insoluble fraction samples were subjected to immunoblotting using antibodies against total tau (Tau5) and phosphorylated tau (pS199, pS396), and the levels of total and phosphorylated tau were quantitatively analyzed.\nMouse models were anesthetized, saline was intracardially perfused, and blood was removed using a perfusion pump device. The brain was then removed and weighed. 1 mL of RIPA buffer (containing protease and phosphatase inhibitor cocktails) was added to the extracted brain and homogenized.\nThe homogenized brain lysates were transferred to EP tubes and incubated on an orbital shaker at 4°C for 2 hours. After centrifugation at 13,000 rpm for 20 minutes at 4°C, the supernatant (soluble fraction) was collected in a new EP tube and stored at -80°C.\nTo prepare samples for immunoblotting, the concentrations of the fractionated samples were quantified using the Bradford protein quantification assay. RIPA buffer and 4X SDS Laemmli sample buffer (containing 2.5% β-mercaptoethanol for reducing conditions) were added to each sample to adjust the final protein concentration to 2 mg/mL. The samples were then boiled at 97°C for 5 minutes.\nMeanwhile, to obtain the insoluble fraction, the remaining pellet after supernatant removal was resuspended in RIPA buffer containing 1 M sucrose (1 mL) and DNase I (1 mg/mL). […]\n20 µg of each brain lysate sample of soluble and insoluble fractions were loaded onto a 10% SDS-PAGE gel (SDS-PAGE running buffer: 1X Tris/Glycine/SDS buffer in 3' D.W.), and electrophoresis was performed at 80 V for 30 minutes followed by 90 V for 1 hour. […] Protein bands of the membrane were detected using ChemiDoc with ECL solution, which is HRP substrate, and band intensities were quantified using ImageJ software (NIH)."}, "4R Tau^P301L-BiFC mouse": {"tested_on": "4R Tau^P301L-BiFC mouse", "experiment": "Y-maze experiment in 4R tauopathy mouse model", "assay_type": "in vivo", "settings": "GV2002 2 mg/kg subcutaneous, 3 times/week, 21 weeks; 8 minutes Y-maze", "method": "as §1\nY-maze experiments were conducted on a 4R tauopathy mouse model administered GV2002 for five months, from 7.5 to 12.5 months of age, to evaluate the efficacy of GV2002 in alleviating impairment in spatial memory.\nPrior to the experiment, mice were allowed one hour to acclimate to the testing environment. The mice's behavior was recorded for 8 minutes."}, "[2]": {"experiment": "Stability in human plasma (LC-MS, residual peptide)", "assay_type": "in vitro ADME", "settings": "37 °C, read-out: percentage of residual peptide relative to the peptide amount before reaction", "method": "The peptide was added to human plasma and diluted to a concentration of 5 µM, followed by incubation at 37 °C for 10, 60, and 240 minutes with stirring. The reaction mixture was collected and pretreated by plasma protein precipitation using methanol containing 0.1% formic acid. The resulting supernatants were collected and analyzed by LC-MS under the conditions shown in Table 1 below to determine the percentage of residual peptide relative to the initial peptide amount."}, "[3]": {"settings": "soluble fraction of brain lysate"}},
  "data": [
    {"substance": "Ac-EARPALLTSRLRFIPK-NH2 [GV2002]", "values": [
      {"measurement": "Tau-BiFC fluorescence intensity, reduction compared to the vehicle-administered group", "setting": "tau oligomer formation; hippocampus region", "value": 63, "unit": "%"},
      {"measurement": "Tau-BiFC fluorescence intensity, reduction compared to the vehicle-administered group", "setting": "tau oligomer formation; motor cortex region", "value": 56, "unit": "%"},
      {"measurement": "Tau-BiFC fluorescence intensity, reduction compared to the vehicle-administered group", "setting": "tau oligomer formation; somatosensory cortex region", "value": 58, "unit": "%"},
      {"measurement": "Tau-BiFC fluorescence intensity, reduction compared to the vehicle-administered group", "setting": "tau oligomer formation; substantia nigra region", "value": 56, "unit": "%"},
      {"measurement": "level of insoluble tau, reduced to (compared to the vehicle-administered group)", "setting": "[1]; insoluble fraction of brain lysate, total tau (Tau5)", "value": 57, "unit": "%"},
      {"measurement": "phosphorylated tau pS199, reduced to (compared to the vehicle-administered group)", "setting": "[1]; [3]", "value": 66, "unit": "%"},
      {"measurement": "phosphorylated tau pS396, reduced to (compared to the vehicle-administered group)", "setting": "[1]; [3]", "value": 56, "unit": "%"},
      {"measurement": "rate of spontaneous alternation behavior compared to the vehicle-administered group", "setting": "4R Tau^P301L-BiFC mouse", "value": "significant increase"},
      {"measurement": "remaining at 1 h, 5 µM", "setting": "[2]; 60 minutes", "value": 57.2, "unit": "%"},
      {"measurement": "remaining at 4 h, 5 µM", "setting": "[2]; 240 minutes", "value": 46.5, "unit": "%"}
    ]}
  ]
}
